Laboratory results as given in patent US6887691B2, “DNA coding for protein which confers on bacterium Escherichia coli resistance to L-homoserine, and method for producing L-amino acids” (priority 1998, dated 2005).

Assays:
Assay in all cases: MIC of amino acids and amino acid analogues on M9 agar test plates
Type in all cases: cell-based
[1] = test system: E. coli strain N99 (rhtB+); settings: Escherichia coli, initial strain, doubling increments, examined after 40-46 h cultivation
Description: (§1) Then the susceptibility of the thus obtained E. coli strain N99 rhtB::cat, of the initial strain N99 (rhtB^+) and of its derivative transformed with pRhtB plasmid, N99/pRhtB, to some amino acids and amino acid analogues was tested. overnight cultures of the strains grown in M9 minimal medium at 37° C. with a rotary shaker (10^9 cfu/ml) were diluted 1:100 and grown for 5 hours under the same conditions. Then the log phase cultures thus obtained were diluted and about 10^4 of alive cells were applied to well-dried test plates with M9 agar containing doubling increments of amino acids or analogues. The minimum inhibitory concentration (MIC) of these compounds were examined after 40-46 h cultivation.

E. coli strain N99/pRhtB = settings: Escherichia coli
Description: as §1

[2] = test system: E. coli strain N99 rhtB::cat; settings: Escherichia coli
Description: To inactivate the chromosomal rhtB gene the plasmid pNPZ46 was constructed (FIG. 1) on the basis of pUK21 vector. It harbors a DNA fragment from 86 min of E. coli chromosome, with the rhtB gene and 5′-flanking and 3′-flanking regions thereof. Then the ClaI-Eco47III fragment of the pNPZ46 plasmid rhtB gene was substituted for AsuII-BsrBI fragment containing cat (Cm^R) gene of pACYC184 plasmid (Chang and Cohen, J. Bacteriol., 134, 1141-1156, 1978) giving the pNPZ47 plasmid (FIG. 1). To introduce the obtained insertionally inactivated rhtB gene into the chromosome of the E. coli strain N99 (the streptomycin-resistant derivative of the known strain W3350 (Campbell, Virology, 14, 22-33, 1961)), the method of Parker and Marinus was used (Parker, B. and Marinus, M. G., Gene, 73, 531-535, 1988).
as §1

Structure (SMILES)	MIC [1]	MIC (E. coli strain N99/pRhtB)	MIC [2]
CCCC(N)(O)C(=O)O (stereo not drawn) [AHVA, α-amino-α-hydroxyvaleric-acid, reference compound]	50 µg/mL	2000 µg/mL	25 µg/mL
N[C@@H](CO)C(=O)O [L-serine]	5000 µg/mL	10000 µg/mL	5000 µg/mL
NCCSC[C@H](N)C(=O)O [AEC, S-(2-aminoethyl)-L-cysteine, reference compound]	10 µg/mL	25 µg/mL	10 µg/mL
C[C@@H](O)[C@H](N)C(=O)O [L-threonine]	30000 µg/mL	50000 µg/mL	30000 µg/mL
N[C@@H](CCO)C(=O)O [L-homoserine]	250 µg/mL	30000 µg/mL	125 µg/mL
CC(C)[C@H](N)C(=O)O [L-valine]	0.5 µg/mL	1 µg/mL	0.5 µg/mL
CN(C)CC(N)C(=O)O (racemic) [4-aza-DL-leucine, reference compound]	40 µg/mL	100 µg/mL	40 µg/mL
